The values below come from patent publication US10981932B2, “Macrocyclic indole derivatives” (Bayer Aktiengesellschaft, priority 2016, dated 2021).

Experiment [1] deals with SUDHL5. Description: Induction of cytotoxicity (CellTiter-Glo, 5 h), SUDHL5. The following applies: Homo sapiens, SU-DHL-5, 5 h, read-out: Cytotox SUDHL5 [M] (median), SUDHL5 cells, cytotoxicity induction, CellTiter-Glo, 5 h incubation, median. In general terms: In ATP-based viability assays light output follows the ATP content of the culture.
Method: Therefore, cytotoxicity assays were run in parallel in SUDHL5 and SUDHL10 cells.
The different cell lines were plated in culture medium (RPMI 1640 [GIBCO #22400-089]supplemented with 10% Fetal Bovine Serum) at a density of 3.300 cells in 30 μl/well in a sterile, solid black, flat bottom, polystyrene, TC-treated 384-well microplate (Corning #3571) using Multidrop Combi Reagent Dispenser. As a control, medium without cells was also added to the plate. Cells were incubated in a humidified incubator at 37° C. overnight. On the next day, the cells were treated with compounds (stock solution, 10 mM in DMSO) using the HP D300 Digital Dispenser in a concentration range of 3.3×10e-5 M (33 μM) to 5×10e-9 M (5 nM) in a single-dot curve with at least 16 dilutions and a DMSO concentration of 0.33%. Rim wells were excluded. The cells were incubated for 5 h hours in a humidified incubator at 37° C. After this incubation, 30 μl of CellTiter-Glo@ Luminescent Cell Viability reagent (Promega, G7573) was added to each well using the Multidrop Combi Reagent Dispenser, followed by 15 min incubation on a shaker at room temperature. Finally, luminescence was read at 0.1 ms, with a gain of 3000 using the PHERAstar FS microplate reader (BMG Labtech).
The Bella DRC Master Sheet was used to calculate IC50s, with fixed CI=0 and C0=1.
Experiment [2] concerns SUDHL10. Description: Induction of caspase-3/7 activity (Caspase-Glo 3/7), SUDHL10. The class given is cell-based. Particulars: Homo sapiens, SU-DHL10, 3 h, caspase-3/7 induction, SUDHL10 cells, 3 h treatment; median. The method, boiled down:
(§1)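 DLBCL cells treated with compounds for 3 h at 37 °C, then caspase-3/7 activity read by Caspase-Glo 3/7 luminescence. Medium-only background subtracted; EC50 fitted with C0 fixed at 1 and top set to the reference compound's maximal induction.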

The next experiment concerns OPM2. Description: Anti-proliferative effect (CellTiter-Glo, 72 h), OPM2. The class given is cell-based. The following applies: Homo sapiens, OPM-2, 72 h, OPM2 cells, median, read-out: IC50 antiproliferation assay OPM2 [M] (median). Put shortly: (§2)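 Cells were treated with compounds for 72 h at 37 °C in a humidified incubator, and viability was measured by CellTiter-Glo luminescence. A parallel day 0 plate, read the same way, gave the time zero baseline.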

The target in the next experiment is MCL-1 (Homo sapiens, UniProt Q07820). Briefly: Protein-protein interaction assay MCL-1/Noxa BH3 peptide (MCL-1 assay), TR-FRET. The class given is binding. The following applies: MBP-MCL-1 / Noxa BH3-derived peptide, median. The method, boiled down: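 TR-FRET, 665/622 nm emission ratio (excitation 330–350 nm), measured MCL-1/Noxa complex formation. 1 nM MBP-MCL-1, 50 mM Tris/HCl pH 7, 0.1% BGG, 2 mM DTT. Incubation 1 h at 22 °C, then overnight at 4 °C. IC50 by 4-parameter regression, normalized to DMSO (0%) and no-MCL-1 (100%) controls.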
A general note: Time-resolved FRET reads energy transfer from a long-lived donor to a nearby acceptor.

Experiment [3] relates to SUDHL5. Briefly: Induction of caspase-3/7 activity (Caspase-Glo 3/7), SUDHL5. The class given is cell-based. The following applies: Homo sapiens, SU-DHL-5, 3 h, caspase-3/7 induction, SUDHL5 cells, 3 h treatment; median. The method, boiled down:
as §1

For experiment [4], the system named is SUDHL10. Briefly: Anti-proliferative effect (CellTiter-Glo, 72 h), SUDHL10. The class given is cell-based. The following applies: Homo sapiens, SU-DHL10, 72 h, SUDHL10 cells, antiproliferation, 72 h incubation, median, read-out: Antiproli SUDHL10 [M] (median). The method, boiled down:
as §2

The test system of the next experiment is A2780. Description: Anti-proliferative effect (CellTiter-Glo, 72 h), A2780. The class given is cell-based. The following applies: Homo sapiens, A2780, 72 h, A2780 cells, median, read-out: IC50 antiproliferation assay A2780 [M] (median). The method, boiled down:
as §2

Experiment [5] has as its system SUDHL10. Briefly: Induction of cytotoxicity (CellTiter-Glo, 5 h), SUDHL10. The following applies: Homo sapiens, SU-DHL10, 5 h, read-out: Cytotox SUDHL10 [M] (median), SUDHL10 cells, cytotoxicity induction, CellTiter-Glo, 5 h incubation, median.
For experiment [6], the system named is SUDHL5. Briefly: Anti-proliferative effect (CellTiter-Glo, 72 h), SUDHL5. Format: cell-based. Particulars: Homo sapiens, SU-DHL-5, 72 h, SUDHL5 cells, antiproliferation, 72 h incubation, median, read-out: Antiproli SUDHL5 [M] (median). Put shortly:
as §2

Molecules are shown by their SMILES.

Sequence of MCL-1 (Q07820 whole entry): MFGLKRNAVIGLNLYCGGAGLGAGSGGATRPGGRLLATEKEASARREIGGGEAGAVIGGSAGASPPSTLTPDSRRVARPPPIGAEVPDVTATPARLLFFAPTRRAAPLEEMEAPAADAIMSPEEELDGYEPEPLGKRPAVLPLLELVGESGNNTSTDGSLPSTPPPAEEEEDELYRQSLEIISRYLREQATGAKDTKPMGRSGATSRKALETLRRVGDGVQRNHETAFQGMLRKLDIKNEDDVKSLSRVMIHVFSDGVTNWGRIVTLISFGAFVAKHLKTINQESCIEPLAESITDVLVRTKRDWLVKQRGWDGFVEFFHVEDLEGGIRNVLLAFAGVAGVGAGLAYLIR

In general, EC50 refers to the concentration giving half of the maximal effect. With `Cc1c2c(nn1CCN1CCOCC1)CN(C)CCCn1c(C(=O)O)c(CCCOc3cccc4ccccc34)c3cccc-2c31` (racemic) [Example 059, (rac)-7,11-dimethyl-10-[2-(morpholin-4-yl)ethyl]-1-[3-(naphthalen-1-yloxy)propyl]-4,5,67,8,10-hexahydropyrazolo[3′,4′:7,8][1,5]diazecino[9,10,1-hi]indole-2-carboxylic Acid], the IC50 with SUDHL5 [1] turned out to be 2.54e-05 M; with OPM2, 2.52e-05 M; against MCL-1, 0.0239 µM; with SUDHL10 [4], 1.99e-05 M; in the experiment on A2780 it was 2.91e-05 M; in the experiment on SUDHL10 [5], 1.9e-05 M. Further, the IC50 with SUDHL5 [6] came to 6.96e-06 M. Moreover, the half-maximal effective concentration (EC50) was determined as 27.7 µM in the experiment with SUDHL10 [2] and 15.9 µM with SUDHL5 [3].

In the case of `Cc1c2c(nn1C)COC/C=C\Cn1c(C(=O)O)c(CCCOc3cccc4ccccc34)c3cccc-2c31` (racemic) [Example 062, (rac)-(11Z)-2,3-dimethyl-7-[3-(naphthalen-1-yloxy)propyl]-2,10,13,15-tetrahydropyrazolo[4′,3′:9,10][1,6]oxazacycloundecino[8,7,6-hi]indole-8-carboxylic Acid], the IC50 with SUDHL5 [1] came out at 6.67e-06 M; in the experiment on OPM2, 1.67e-05 M; on MCL-1 it was 0.0131 µM; in the experiment with SUDHL10 [4], 4.49e-06 M; in the experiment on A2780 it was 2.26e-05 M; in the experiment on SUDHL10 [5], 2.43e-05 M. The IC50 in the experiment on SUDHL5 [6] turned out to be 4.17e-06 M. For the same molecule, the EC50 turned out to be 18.1 µM in the experiment on SUDHL10 [2] and 5.9 µM in the experiment with SUDHL5 [3].

As to `Cc1c2c(nn1C)COCCCn1c(C(=O)O)c(CCCOc3cccc4ccccc34)c3cccc-2c31` (racemic) [Example 063, (rac)-10,11-dimethyl-1-[3-(naphthalen-1-yloxy)propyl]-5,6,8,10-tetrahydro-4H-pyrazolo[4′,3′:8,9][1,5]oxazecino[7,6,5-hi]indole-2-carboxylic Acid], the IC50 in the experiment on SUDHL5 [1] came to 7.73e-06 M; with OPM2, 1.36e-05 M; against MCL-1, 0.0106 µM; in the experiment on SUDHL10 [4], 5.35e-06 M; in the experiment on A2780, 2.02e-05 M; in the experiment on SUDHL10 [5], 1.16e-05 M. The IC50 in the experiment with SUDHL5 [6] was 3.98e-06 M. For the same molecule, the values for the EC50 with SUDHL10 [2] and in the experiment on SUDHL5 [3] were 16.5 µM and 7.71 µM, respectively.

For the molecule `Cc1ccc2c(CCCOc3cccc4ccccc34)c(C(=O)O)n3c2c1-c1c(nn(C)c1C)COC/C=C\C3` (racemic) [Example 070, (rac)-(11Z)-2,3,4-trimethyl-7-[3-(naphthalen-1-yloxy)propyl]-2,10,13,15-tetrahydropyrazolo[4′,3′:9,10][1,6]oxazacycloundecino[8,7,6-hi]indole-8-carboxylic Acid], the IC50 in the experiment with SUDHL5 [1] is 4.28e-06 M; in the experiment with OPM2, 1.34e-05 M; against MCL-1, 0.00652 µM; in the experiment with SUDHL10 [4] it was 8.58e-06 M; in the experiment with A2780, 1.87e-05 M; in the experiment with SUDHL10 [5], 9.59e-06 M. The IC50 in the experiment on SUDHL5 [6] worked out at 2e-06 M. Besides, the EC50 in the experiment with SUDHL10 [2] is 8.62 µM; in the experiment on SUDHL5 [3], 5.4 µM.

`COCCn1nc2c(c1C)-c1cccc3c(CCCOc4cccc5ccccc45)c(C(=O)O)n(c13)C/C=C\COC2` (racemic) [Example 071, (rac)-(11Z)-2-(2-methoxyethyl)-3-methyl-7-[3-(naphthalen-1-yloxy)propyl]-2,10,13,15-tetrahydropyrazolo[4′,3′:9,10][1,6]oxazacycloundecino[8,7,6-hi]indole-8-carboxylic Acid]: the IC50 in the experiment with SUDHL5 [1] was found to be 7.45e-06 M; in the experiment with OPM2, 1.3e-05 M; against MCL-1, 0.00412 µM; in the experiment on SUDHL10 [4] it was 2.59e-06 M; in the experiment with A2780, 1.89e-05 M; with SUDHL10 [5], 1.76e-05 M. Besides, the IC50 in the experiment with SUDHL5 [6] was 6.23e-06 M. Also, the half-maximal effective concentration (EC50) in the experiment on SUDHL10 [2] worked out at 11.1 µM; in the experiment with SUDHL5 [3], 5.04 µM.

In the case of `Cc1ccc2c(CCCOc3cccc4ccccc34)c(C(=O)O)n3c2c1-c1c(nn(C)c1C)CN(C)CCC3` (racemic) [Example 072, (rac)-7,10,11,12-tetramethyl-1-[3-(naphthalen-1-yloxy)propyl]-4,5,6,7,8,10-hexahydropyrazolo[3′,4′:7,8][1,5]diazecino[9,10,1-hi]indole-2-carboxylic Acid], the IC50 in the experiment with SUDHL5 [1] was 3.43e-06 M; with OPM2, 8.23e-06 M; against MCL-1 it was 0.0034 µM; with SUDHL10 [4] it was 5.65e-06 M; in the experiment with A2780, 9.51e-06 M; in the experiment with SUDHL10 [5], 6.12e-06 M. For the same molecule, the IC50 in the experiment on SUDHL5 [6] worked out at 1.11e-06 M. For the same molecule, the concentration for a half-maximal effect (EC50) came to 4.91 µM in the experiment on SUDHL10 [2] and 4.54 µM with SUDHL5 [3].

In the case of `Cc1ccc2c(CCCOc3cccc4ccccc34)c(C(=O)O)n3c2c1-c1c(nn(C)c1C)COCCCC3` (racemic) [Example 075, (rac)-2,3,4-trimethyl-7-[3-(naphthalen-1-yloxy)propyl]-2,10,11,12,13,15-hexahydropyrazolo[4′,3′:9,10][1,6]oxazacycloundecino[8,7,6-hi]indole-8-carboxylic Acid], the IC50 with SUDHL5 [1] was 3.66e-06 M; with OPM2, 1.1e-05 M; against MCL-1, 0.00171 µM; in the experiment with SUDHL10 [4] it was 2.63e-06 M; in the experiment on A2780 it was 1.97e-05 M; in the experiment with SUDHL10 [5] it was 8.23e-06 M. For the same molecule, in the experiment on SUDHL5 [6], the IC50 came to 3.21e-06 M. The EC50 in the experiment on SUDHL10 [2] was found to be 6.36 µM; in the experiment on SUDHL5 [3] it was 3.25 µM.

On to `CCn1nc2c(c1C1CC1)-c1cccc3c(CCCOc4cccc5ccccc45)c(C(=O)O)n(c13)CCCCOC2` (racemic) [Example 081, (rac)-3-Cyclopropyl-2-ethyl-7-[3-(naphthalen-1-yloxy)propyl]-2,10,11,12,13,15-hexahydropyrazolo[4′3′:9,10][1,6]oxazacycloundecino[8,7,6-hi]indole-8-carboxylic Acid], for which the IC50 with SUDHL5 [1] stood at 7.06e-06 M; in the experiment on OPM2, 1.44e-05 M; against MCL-1, 0.015 µM; in the experiment with SUDHL10 [4], 9.62e-06 M; with A2780, 1.74e-05 M; with SUDHL10 [5], 2.26e-05 M. The IC50 with SUDHL5 [6] came to 9.61e-06 M. Further, the EC50 in the experiment with SUDHL10 [2] worked out at 19 µM; in the experiment with SUDHL5 [3] it was 7.21 µM.

On to `COCCn1nc2c(c1C1CC1)-c1cccc3c(CCCOc4cccc5ccccc45)c(C(=O)O)n(c13)CCCCOC2` (racemic) [Example 084, (rac)-3-Cycopropyl-2-(2-methoxyethyl)-7-[3-(naphthalen-1-yloxy)propyl]-2,10,11,12,13,15-hexahydropyrazolo[4′,3′:9,10][1,6]oxazacycloundecino[8,7,6-hi]indole-8-carboxylic Acid], for which the IC50 amounted to 6.6e-06 M in the experiment with SUDHL5 [1]; 2.67e-05 M in the experiment with OPM2; 0.00309 µM at MCL-1; 3.87e-06 M in the experiment on SUDHL10 [4]; 1.77e-05 M with A2780; 2.06e-05 M in the experiment with SUDHL10 [5]. In the experiment with SUDHL5 [6], the IC50 was 7.19e-06 M. Also, the results for the concentration giving a half-maximal response (EC50) in the experiment with SUDHL10 [2] and in the experiment with SUDHL5 [3] were 14.9 µM and 7.55 µM, respectively.

In the case of `CN1CCCn2c(C(=O)O)c(CCCOc3cccc4ccccc34)c3cccc(c32)-c2c(CCN3CCOCC3)nn(C)c2C1` (racemic) [Example 124, (rac)-7,9-dimethyl-11-[2-(morpholin-4-yl)ethyl]-1-[3-(naphthalen-1-yloxy)propyl]-4,5,6,7,8,9-hexahydropyrazolo[3′,4′:7,8][1,5]diazecino[9,10,1-hi]indole-2-carboxylic Acid], the IC50 in the experiment on SUDHL5 [1] worked out at 1.71e-05 M; in the experiment with OPM2, 1.48e-05 M; against MCL-1, 0.0187 µM; in the experiment with SUDHL10 [4], 3.05e-06 M; in the experiment with A2780, 1.1e-05 M; in the experiment with SUDHL10 [5] it was 1.61e-05 M. Besides, the IC50 in the experiment with SUDHL5 [6] turned out to be 6.64e-06 M. Also, the EC50 is 13.4 µM in the experiment with SUDHL10 [2] and 11.2 µM in the experiment with SUDHL5 [3].

As for `Cn1nc(CN2CCOCC2)c2c1COCC=CCn1c(C(=O)O)c(CCCOc3cccc4ccccc34)c3cccc-2c31` (racemic) [Example 132, (rac)-(E/Z)-1-methyl-3-(morpholin-4-ylmethyl)-7-[3-(naphthalen-1-yloxy)propyl]-1,10,13,15-tetrahydropyrazolo[4′,3′:9,10][1,6]oxazacycloundecino[8,7,6-hi]indole-8-carboxylic Acid], the IC50 with SUDHL5 [1] was 2.81e-05 M; in the experiment with OPM2 it was 1.17e-05 M; against MCL-1 it was 0.0335 µM; in the experiment with SUDHL10 [4], 6e-06 M; in the experiment with A2780 it was 1.34e-05 M; with SUDHL10 [5], 1.69e-05 M. Also, in the experiment with SUDHL5 [6], the IC50 amounted to 1.78e-05 M. In addition, the half-maximal effective concentration (EC50) was greater than 33 µM in the experiment with SUDHL10 [2] and 25.4 µM in the experiment with SUDHL5 [3].
